From US20240092750A1, “AQUEOUS FORMULATIONS OF CYTOTOXIC TAXANES WITH CYCLODEXTRIN” (Northwestern University, priority 2022, published 2024)
Entries after “also recorded” stand apart in the source; their conditions may differ.

Key:
Tubulin protein = target: T1, Tubulin protein (Sus scrofa, UniProt P02550+P02554); experiment: In vitro tubulin polymerization assay (turbidity at 350 nm); assay type: biochemical, porcine; details: 20 minutes, 37° C.
T1 construct: Tubulin protein (>99% pure, extracted from porcine brain); from tissue; host or cells: porcine brain
T1 sequence (P02554 whole entry): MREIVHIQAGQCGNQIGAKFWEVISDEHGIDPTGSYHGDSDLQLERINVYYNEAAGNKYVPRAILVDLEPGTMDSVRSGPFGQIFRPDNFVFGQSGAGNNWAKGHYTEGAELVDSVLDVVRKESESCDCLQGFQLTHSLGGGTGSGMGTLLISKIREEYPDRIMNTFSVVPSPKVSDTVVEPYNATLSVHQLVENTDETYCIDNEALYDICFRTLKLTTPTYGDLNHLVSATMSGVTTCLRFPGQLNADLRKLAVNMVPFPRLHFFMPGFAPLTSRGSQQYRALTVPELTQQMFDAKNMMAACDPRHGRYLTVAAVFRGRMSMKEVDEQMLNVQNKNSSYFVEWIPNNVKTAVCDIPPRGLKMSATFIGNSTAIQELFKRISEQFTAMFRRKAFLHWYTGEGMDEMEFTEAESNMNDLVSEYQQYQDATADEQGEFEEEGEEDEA
T1 sequence (P02550 whole entry): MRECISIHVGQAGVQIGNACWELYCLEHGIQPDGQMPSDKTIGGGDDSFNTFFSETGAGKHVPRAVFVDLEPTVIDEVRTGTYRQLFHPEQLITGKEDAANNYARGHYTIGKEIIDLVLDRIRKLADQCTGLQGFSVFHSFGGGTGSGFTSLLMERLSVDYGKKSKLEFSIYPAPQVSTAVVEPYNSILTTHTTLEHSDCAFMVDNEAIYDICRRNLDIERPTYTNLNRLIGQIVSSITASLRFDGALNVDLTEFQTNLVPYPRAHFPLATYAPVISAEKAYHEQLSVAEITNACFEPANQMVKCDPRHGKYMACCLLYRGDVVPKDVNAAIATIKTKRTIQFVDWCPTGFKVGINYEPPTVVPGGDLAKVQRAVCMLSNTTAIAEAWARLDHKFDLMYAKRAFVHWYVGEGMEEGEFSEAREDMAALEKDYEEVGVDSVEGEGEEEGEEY
Method: Tubulin protein (>99% pure, extracted from porcine brain) was reconstituted in buffer solution (80 mM PIPES pH 6.9, 2 mM MgCl2, 0.5 mM EGTA, and 10% (v/v) glycerol) to a concentration of 1 mg/mL. 100 μL of this tubulin solution was added per well of a black, 96-well plate, which had been warmed to 37° C. prior to the experiment. This was followed by the addition of either guanosine triphosphate (GTP), Paclitaxel (PTX), or ODDA-PTX-CyD, where the final concentration in each respective well was 1 mM GTP, 10 μM PTX, or 10 μM ODDA-PTX-CyD. Changes in turbidity of the samples were monitored via 96-well plate reader at 350 nm, where a recorded increase in optical density supports the formation of microtubules in solution. Each set of conditions were measured in triplicate and monitored over 20 minutes at 37° C.

[1] = Aqueous solubility tests in milliQ water or dPBS
Method: Solubility Tests: To verify ODDA-PTX aqueous solubility, characterization methods in milliQ water or dPBS were performed.

Nc1nc2c(ncn2[C@@H]2O[C@H](COP(=O)(O)OP(=O)(O)OP(=O)(O)O)[C@@H](O)[C@H]2O)c(=O)[nH]1 [GTP, guanosine triphosphate]
change in optical density (microtubule formation) (Tubulin protein; 1 mM GTP): did not portray significant increases in optical density

CC(=O)O[C@H]1C(=O)[C@@]2(C)[C@H]([C@H](OC(=O)c3ccccc3)[C@]3(O)C[C@H](OC(=O)[C@H](OC(=O)CCCCCCCCCCCCCCCCC(=O)O)[C@@H](NC(=O)c4ccccc4)c4ccccc4)C(C)=C1C3(C)C)[C@]1(OC(C)=O)CO[C@@H]1C[C@@H]2O [ODDA-PTX, 1,18-octadecandioic acid-paclitaxel]
solubility in water or buffer alone (in words) ([1]; water alone / buffer alone): insolubility; also recorded: not soluble in water alone
aqueous solubility with respect to ODDA-PTX ([1]; with respect to ODDA-PTX): 21 µg/mL

CC(=O)O[C@H]1C(=O)[C@@]2(C)[C@H]([C@H](OC(=O)c3ccccc3)[C@]3(O)C[C@H](OC(=O)[C@H](O)[C@@H](NC(=O)c4ccccc4)c4ccccc4)C(C)=C1C3(C)C)[C@]1(OC(C)=O)CO[C@@H]1C[C@@H]2O [paclitaxel]
change in optical density (microtubule formation) (Tubulin protein; 10 μM): resulted in the formation of microtubules
